Earlier results as cited in US20090306103A1, “PYRIDONECARBOXAMIDE DERIVATIVES USEFUL IN TREATING HYPER-PROLIFERATIVE AND ANGIOGENESIS DISORDERS” (priority 2006, published 2009).

Columns and labels:
[1] = system: Bcr-Abl E255K mutant; details: read-out: IC50 against E255K mutant; biochemical assay
[2] = system: Bcr-Abl; details: greater potency than Imatinib
[3] = system: Bcr-Abl Imanitib resistant mutations

- IC50 [1]: 0.4 µM
- potency of Bcr-Abl kinase inhibition relative to Imatinib [2]: 20 fold
Compound: Cc1cn(-c2cc(NC(=O)c3ccc(C)c(Nc4nccc(-c5cccnc5)n4)c3)cc(C(F)(F)F)c2)cn1 [AMN-107]
- inhibition of Imanitib resistant mutations [3]: inhib most Imanitib resistant mutations except for T315I
